Source: publication PMC8343220, “The selectivity of α‐adrenoceptor agonists for the human α1A, α1B, and α1D‐adrenoceptors” (Pharmacology Research & Perspectives, 2021)

How the values were obtained:
human α1A‐adrenoceptor [1] = biological target: T1, human α1A‐adrenoceptor (Homo sapiens, UniProt P35348); settings: CHO‐α1A cells; given as log KD (negative); ligands marked ^a; ref Proudman et al., 2020; cited from earlier work
T1 construct: expressed in transfected cells; host or cells: CHO-K1
T1 sequence (P35348 1-466): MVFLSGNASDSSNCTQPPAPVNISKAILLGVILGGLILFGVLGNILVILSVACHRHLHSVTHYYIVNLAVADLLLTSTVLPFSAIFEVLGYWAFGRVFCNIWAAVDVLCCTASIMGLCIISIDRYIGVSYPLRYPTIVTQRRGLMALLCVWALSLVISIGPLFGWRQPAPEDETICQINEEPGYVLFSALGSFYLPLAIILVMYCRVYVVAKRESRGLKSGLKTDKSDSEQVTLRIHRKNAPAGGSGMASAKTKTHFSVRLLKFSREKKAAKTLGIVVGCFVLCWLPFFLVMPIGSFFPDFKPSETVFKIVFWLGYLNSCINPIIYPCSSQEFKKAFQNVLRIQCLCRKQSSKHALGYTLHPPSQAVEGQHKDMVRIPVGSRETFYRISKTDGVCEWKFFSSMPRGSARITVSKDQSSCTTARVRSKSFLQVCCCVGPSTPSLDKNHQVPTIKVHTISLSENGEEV

[2] = system: parental CHO cell line without any transfected receptors; experiment: ERK1/2‐phosphorylation, parent CHO cells without transfected receptors; type: cell-based, Chinese hamster
human α1B‐adrenoceptor [3] = biological target: T2, human α1B‐adrenoceptor (Homo sapiens, UniProt P35368); settings: CHO‐α1B cells, ref Proudman et al., 2020, cited from earlier work; for Log KD α1B, ^3H‐prazosin whole cell binding: given as log KD (negative), ligands marked ^a
T2 construct: expressed in transfected cells; host or cells: CHO-K1
T2 sequence (P35368 1-520): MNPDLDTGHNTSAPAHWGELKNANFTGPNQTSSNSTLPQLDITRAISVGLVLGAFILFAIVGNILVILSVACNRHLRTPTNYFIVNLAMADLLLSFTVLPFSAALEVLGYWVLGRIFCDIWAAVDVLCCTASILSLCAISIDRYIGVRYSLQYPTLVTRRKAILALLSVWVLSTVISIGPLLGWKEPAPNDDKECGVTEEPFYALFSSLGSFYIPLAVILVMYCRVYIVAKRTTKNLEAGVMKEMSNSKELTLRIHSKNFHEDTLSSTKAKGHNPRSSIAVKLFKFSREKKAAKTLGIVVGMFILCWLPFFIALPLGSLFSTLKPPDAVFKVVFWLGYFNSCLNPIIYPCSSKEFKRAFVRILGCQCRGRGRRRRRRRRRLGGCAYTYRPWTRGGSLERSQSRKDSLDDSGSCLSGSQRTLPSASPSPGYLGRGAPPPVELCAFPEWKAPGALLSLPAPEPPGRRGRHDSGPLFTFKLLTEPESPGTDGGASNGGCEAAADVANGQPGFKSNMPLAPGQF

human α1B‐adrenoceptor [4] = biological target: T2, human α1B‐adrenoceptor; experiment: ERK1/2‐phosphorylation (Surefire Alphascreen), CHO‐α1B cells; type: cell-based; settings: CHO‐α1B cells; maximal response as % PDBu response; for bi‐phasic responses the initial stimulatory part
[5] = biological target: T3, human α1D‐adrenoceptor (full length) (Homo sapiens, UniProt P25100); settings: CHO‐α1D cells; ligands marked ^a; ref Proudman et al., 2020; cited from earlier work
T3 construct: human α1D‐adrenoceptor (full length) were used; expressed in transfected cells; host or cells: CHO-K1
T3 sequence (P25100 1-572): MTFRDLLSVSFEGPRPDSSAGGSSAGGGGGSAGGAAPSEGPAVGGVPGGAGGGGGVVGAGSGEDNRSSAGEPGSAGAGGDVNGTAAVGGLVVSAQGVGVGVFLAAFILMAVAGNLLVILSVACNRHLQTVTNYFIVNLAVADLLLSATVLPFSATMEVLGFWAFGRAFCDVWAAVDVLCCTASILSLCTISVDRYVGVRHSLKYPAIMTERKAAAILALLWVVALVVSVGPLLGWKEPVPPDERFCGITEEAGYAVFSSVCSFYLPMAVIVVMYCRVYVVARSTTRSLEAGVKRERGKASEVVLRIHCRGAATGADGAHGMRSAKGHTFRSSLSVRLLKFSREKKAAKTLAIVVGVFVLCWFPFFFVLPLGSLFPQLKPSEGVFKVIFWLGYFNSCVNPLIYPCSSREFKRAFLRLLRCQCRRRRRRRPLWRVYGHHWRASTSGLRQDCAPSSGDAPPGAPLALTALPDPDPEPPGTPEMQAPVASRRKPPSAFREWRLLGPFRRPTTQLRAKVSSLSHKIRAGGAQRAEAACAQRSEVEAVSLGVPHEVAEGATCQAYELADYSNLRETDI

human α1A‐adrenoceptor [6] = biological target: T1, human α1A‐adrenoceptor; experiment: ERK1/2‐phosphorylation (Surefire Alphascreen), CHO‐α1A cells; type: cell-based; settings: CHO‐α1A cells; % of 10 µM PDBu; ^a bi‐phasic: initial stimulatory part
human α1A‐adrenoceptor [7] = biological target: T1, human α1A‐adrenoceptor; experiment: Intracellular free calcium mobilization, CHO‐α1A cells; type: cell-based; settings: for Intracellular calcium release % ionomycin: maximal response as % of 10 µM ionomycin
human α1A‐adrenoceptor [8] = biological target: T1, human α1A‐adrenoceptor; experiment: ^3H‐cAMP accumulation, CHO‐α1A cells; type: cell-based; settings: CHO‐α1A cells; for cAMP accumulation Log EC50: 5 h; for cAMP accumulation % forskolin: % of 10 µM forskolin response
[9] = biological target: T3, human α1D‐adrenoceptor (full length); experiment: ERK1/2‐phosphorylation (Surefire Alphascreen), CHO‐α1D cells; type: cell-based; settings: CHO‐α1D cells; for ERK1/2‐phosphorylation % PDBu: maximal response as % of PDBu
[10] = biological target: T3, human α1D‐adrenoceptor (full length); experiment: Intracellular free calcium mobilization, CHO‐α1D cells; type: cell-based; settings: CHO‐α1D cells; for Intracellular calcium release % ionomycin: maximal response as % of 10 µM ionomycin
[11] = system: parental CHO cell line without any transfected receptors; experiment: Forskolin‐stimulated cAMP accumulation, parent CHO cells without transfected receptors; type: cell-based, Chinese hamster; settings: CHO cells without transfected receptors; in presence of forskolin
human α1B‐adrenoceptor [12] = biological target: T2, human α1B‐adrenoceptor; experiment: Intracellular free calcium mobilization, CHO‐α1B cells; type: cell-based; settings: CHO‐α1B cells; for Intracellular calcium release % Ionomycin at 100 µM: response at 100 µM ligand (no EC50 given), % of ionomycin response; for Intracellular calcium release Log EC50: given as log EC50 (negative numbers); for Intracellular calcium release % ionomycin: maximal response as % of 10 µM ionomycin response
human α1A‐adrenoceptor [13] = biological target: T1, human α1A‐adrenoceptor; experiment: ^3H‐cAMP accumulation in the presence of 10 μM forskolin, CHO‐α1A cells; type: cell-based; settings: CHO‐α1A cells; 10 μM forskolin
[14] = system: parental CHO cell line without any transfected receptors; experiment: Intracellular calcium mobilization, parent CHO cells without transfected receptors; type: cell-based, Chinese hamster; settings: Cricetulus griseus; CHO cells without transfected receptors; response at maximum concentration used (c2), as % of ionomycin (10μM) response; mean ± s.e.m.; read-out: Intracellular calcium release % ionomycin
[15] = biological target: T3, human α1D‐adrenoceptor (full length); experiment: ^3H‐prazosin whole‐cell radioligand binding, CHO‐α1D cells
human α1A‐adrenoceptor [16] = biological target: T1, human α1A‐adrenoceptor; experiment: ^3H‐prazosin whole‐cell radioligand binding, CHO‐α1A cells
[17] = CHO cells without transfected receptors, maximal response as % of PDBu (10μM) response, mean ± s.e.m.
[18] = CHO‐α1A cells, given as log EC50 (negative)
[19] = response at 100 µM ligand (no EC50 given)

Row | ERK1/2‐phosphorylation % PDBu (human α1A‐adrenoceptor [6]) [%] | Intracellular calcium release Log EC50 (human α1A‐adrenoceptor [7]; [18]) | Intracellular calcium release % ionomycin (human α1A‐adrenoceptor [7]; CHO‐α1A cells) [%] | cAMP accumulation Log EC50 (human α1A‐adrenoceptor [8]) | cAMP accumulation % forskolin (human α1A‐adrenoceptor [8]) | Intracellular calcium release % Ionomycin at 100 µM (human α1B‐adrenoceptor [12]) [%] | SMILES | Log KD α1A, ^3H‐prazosin whole cell binding (human α1A‐adrenoceptor [1]) | ERK1/2-phosphorylation % PDBu [2, 17] | Log KD α1B, ^3H‐prazosin whole cell binding (human α1B‐adrenoceptor [3]) | ERK1/2‐phosphorylation % PDBu (human α1B‐adrenoceptor [4]) | % site 1 (% of the response at the first component), α1D two‐component binding curve [5] [%] | ERK1/2‐phosphorylation % PDBu [9] | Intracellular calcium release % ionomycin [10] | cAMP accumulation (in presence of forskolin) Log EC50 [11] | cAMP accumulation (in presence of forskolin) Log EC50 (human α1A‐adrenoceptor [13]) | Intracellular calcium release Log EC50 (human α1B‐adrenoceptor [12]) | Intracellular calcium release % ionomycin (human α1B‐adrenoceptor [12]) | other results
1 | 29.2 ± 3.8 | −7.99 ± 0.19 | 20.8 ± 2.0 | −8.41 ± 0.23 | 1.2 ± 0.2% | 4.8 ± 1.7 | COc1ccccc1N1CCN(CCN2C(=O)c3ccccc3C(C)(C)C2=O)CC1 [ARC239] | −9.35 ± 0.08 | No response | −8.15 ± 0.07 | No response | 60.5 ± 1.4 | No response | No response | No response |  |  |  | 
2 | 29.0 ± 4.7 |  | 25.0 ± 3.4 |  | No response | 8.0 ± 2.1 | COc1ccccc1N1CCN(CCN2C(=O)CC3(CCCC3)CC2=O)CC1 [BMY7378] |  | No response |  | No response | 57.7 ± 2.6 |  |  | No response |  |  |  | ERK1/2‐phosphorylation % PDBu at 100 µM [9, 19]: 3.0 ± 1.5%; Intracellular calcium release % Ionomycin at 100 µM [10, 19]: 4.2 ± 1.0%; Emax [14]: 7.8 ± 2.2%
3 | 10.4 ± 3.4 | −7.63 ± 0.13 | 16.6 ± 1.8 | No response | No response |  | O=C1Nc2ccccc2C2=NC(CN3CCN(c4ccccc4)CC3)CN12 (stereo not shown) [2‐PMDQ] | −8.19 ± 0.09 |  | −6.95 ± 0.05 |  | 57.6 ± 2.8 | No response | No response |  | No response | No response | No response | 

Row | SMILES | ERK1/2‐phosphorylation % PDBu (human α1A‐adrenoceptor [6]) [%] | Intracellular calcium release Log EC50 (human α1A‐adrenoceptor [7]; [18]) | Intracellular calcium release % ionomycin (human α1A‐adrenoceptor [7]; CHO‐α1A cells) [%] | cAMP accumulation Log EC50 (human α1A‐adrenoceptor [8]) | cAMP accumulation % forskolin (human α1A‐adrenoceptor [8]) | Intracellular calcium release % Ionomycin at 100 µM (human α1B‐adrenoceptor [12]) [%] | Log KD α1A, ^3H‐prazosin whole cell binding (human α1A‐adrenoceptor [1]) | ERK1/2-phosphorylation % PDBu [2, 17] | Log KD α1B, ^3H‐prazosin whole cell binding (human α1B‐adrenoceptor [3]) | ERK1/2‐phosphorylation % PDBu (human α1B‐adrenoceptor [4]) | % site 1 (% of the response at the first component), α1D two‐component binding curve [5] [%] | ERK1/2‐phosphorylation % PDBu [9] | Intracellular calcium release % ionomycin [10] | cAMP accumulation (in presence of forskolin) Log EC50 [11] | cAMP accumulation (in presence of forskolin) Log EC50 (human α1A‐adrenoceptor [13]) | Intracellular calcium release Log EC50 (human α1B‐adrenoceptor [12]) | Intracellular calcium release % ionomycin (human α1B‐adrenoceptor [12]) | other results
4 | COc1ccccc1N1CCN(CC2CN3C(=O)N(C)c4ccccc4C3=N2)CC1 (stereo not shown) [2‐MPMDQ] | 13.6 ± 3.7 | −7.69 ± 0.08 | 19.7 ± 2.0 | No response | No response | 3.1 ± 1.5 | −9.06 ± 0.07 |  | −7.37 ± 0.04 | No response | 64.0 ± 2.1 | No response | No response |  | No response |  |  | 
5 | CC(C)(C)NCC(O)COc1cccc2[nH]c(=O)[nH]c12 (stereo not shown) [CGP 12177] | 86.8 ± 2.6 |  | 37.0 ± 2.8 |  |  |  |  |  |  | 38.1 ± 3.8% |  | 25.8 ± 3.2% | No response |  |  | No response | No response | Emax ([2]; Cricetulus griseus, CHO cells without transfected receptors, maximal response as % of PDBu (10μM) response, mean ± s.e.m., read-out: ERK1/2-phosphorylation % PDBu): 22.8 ± 4.3%; EC50 ([2]; Cricetulus griseus, CHO cells without transfected receptors, mean ± s.e.m., read-out: ERK1/2-phosphorylation Log EC50 (converted)): 977 nM; ERK1/2‐phosphorylation response in parent CHO cells ([2]; untransfected cells): stimulated ERK1/2‐phosphorylation responses; Log IC50 α1B, ^3H‐prazosin whole cell binding (human α1B‐adrenoceptor [3]; printed as IC50> log value, ligand marked ^a): IC50>−4; Affinity selectivity ratio α1B vs α1D [15]: >1.6 fold; Affinity selectivity ratio α1A vs α1B (human α1A‐adrenoceptor [16]): >13.8 fold; Log efficacy ratio KD /EC50 (human α1A‐adrenoceptor [7]): 1.04; EC50 (human α1A‐adrenoceptor [7]; CHO‐α1A cells, given as log EC50 (negative), read-out: Intracellular calcium release Log EC50 (converted)): 661 nM; Intracellular calcium release Log EC50 ([10]; log values given negative): No response
